PubChem BioAssay AID2060884 (Molecular Pharmacology Branch, DTP, NCI, 2025)

Test system: NCI-H929 complex spheroids, viability % test/control
Test: Anticancer human tumor NCI-H929 cell line growth inhibition [RAS];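 note: compound exposure lasted seven days before viability was read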;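 for viability, T/C: 100% = DMSO vehicle control viability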
Details: for IC50: curve of first compound; for viability, T/C: stronger effect = lower value; active = viability on the fitted dose curve at most 10% of control; inactive = the rest
How it was run: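 Tumour cells grown as complex spheroids with HUVEC endothelial cells and mesenchymal stem cells, treated with RAS pathway inhibitor combinations. Each agent spans half-log steps from near clinical Cmax, or 10 microM where Cmax is unknown.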

[1] = second compound 0.0316 µM, first compound 0.00316 µM
[2] = second compound 0.0316 µM, first compound 0.01 µM
[3] = second compound 0.0316 µM, first compound 0.0316 µM
[4] = second compound 0.0316 µM, first compound 0.1 µM
[5] = second compound 0.0316 µM, first compound 0.316 µM
[6] = second compound 0.0316 µM, first compound 1 µM
[7] = second compound 0.1 µM, first compound 0.00316 µM
[8] = second compound 0.1 µM, first compound 0.01 µM
[9] = second compound 0.1 µM, first compound 0.0316 µM
[10] = second compound 0.1 µM, first compound 0.1 µM
[11] = second compound 0.1 µM, first compound 0.316 µM
[12] = second compound 0.1 µM, first compound 1 µM
[13] = second compound 0.316 µM, first compound 0.00316 µM
[14] = second compound 0.316 µM, first compound 0.01 µM
[15] = second compound 0.316 µM, first compound 0.0316 µM
[16] = second compound 0.316 µM, first compound 0.1 µM
[17] = second compound 0.316 µM, first compound 0.316 µM
[18] = second compound 0.316 µM, first compound 1 µM
[19] = second compound 1 µM, first compound 0.00316 µM
[20] = second compound 1 µM, first compound 0.01 µM
[21] = second compound 1 µM, first compound 0.0316 µM
[22] = second compound 1 µM, first compound 0.1 µM
[23] = second compound 1 µM, first compound 0.316 µM
[24] = second compound 1 µM, first compound 1 µM
[25] = second compound 3.16 µM, first compound 0.00316 µM
[26] = second compound 3.16 µM, first compound 0.01 µM
[27] = second compound 3.16 µM, first compound 0.0316 µM
[28] = second compound 3.16 µM, first compound 0.1 µM
[29] = second compound 3.16 µM, first compound 0.316 µM
[30] = second compound 3.16 µM, first compound 1 µM
[31] = second compound 10 µM, first compound 0.00316 µM
[32] = second compound 10 µM, first compound 0.01 µM
[33] = second compound 10 µM, first compound 0.0316 µM
[34] = second compound 10 µM, first compound 0.1 µM
[35] = second compound 10 µM, first compound 0.316 µM
[36] = second compound 10 µM, first compound 1 µM

CCN1CCN(Cc2ccc(Nc3ncc(F)c(-c4cc(F)c5nc(C)n(C(C)C)c5c4)n3)nc2)CC1 + C#Cc1c(F)ccc2cc(O)cc(-c3ncc4c(N5CC6CCC(C5)N6)nc(OCC56CCCN5CC(F)C6)nc4c3F)c12
inactive: viability, T/C [1] 101% | viability, T/C [2] 102% | viability, T/C [3] 108% | viability, T/C [4] 106% | viability, T/C [5] 120% | viability, T/C [6] 107% | viability, T/C [7] 92.2% | viability, T/C [8] 99.1% | viability, T/C [9] 103% | viability, T/C [10] 107% | viability, T/C [11] 118% | viability, T/C [12] 110% | viability, T/C [13] 96.6% | viability, T/C [14] 100% | viability, T/C [15] 103% | viability, T/C [16] 113% | viability, T/C [17] 120% | viability, T/C [18] 115% | viability, T/C [19] 93.2% | viability, T/C [20] 102% | viability, T/C [21] 109% | viability, T/C [22] 113% | viability, T/C [23] 117% | viability, T/C [24] 112% | viability, T/C [25] 97.8% | viability, T/C [26] 100% | viability, T/C [27] 104% | viability, T/C [28] 112% | viability, T/C [29] 120% | viability, T/C [30] 115% | viability, T/C [31] 98.5% | viability, T/C [32] 100% | viability, T/C [33] 99.2% | viability, T/C [34] 109% | viability, T/C [35] 118% | viability, T/C [36] 57.3%
> 1000 nM: IC50 (second compound 0.0316 µM) | IC50 (second compound 0.1 µM) | IC50 (second compound 0.316 µM) | IC50 (second compound 1 µM) | IC50 (second compound 3.16 µM) | IC50 (second compound 10 µM)

C=CC(=O)N1CCN(c2nc(OCC3CCCN3C)nc3c(F)c(-c4nc(N)cc(C)c4C(F)(F)F)c(Cl)cc23)C(C)C1 (centres undefined) + C#Cc1c(F)ccc2cc(O)cc(-c3ncc4c(N5CC6CCC(C5)N6)nc(OCC56CCCN5CC(F)C6)nc4c3F)c12
> 1000 nM: IC50 (second compound 0.0316 µM) | IC50 (second compound 0.1 µM) | IC50 (second compound 0.316 µM) | IC50 (second compound 1 µM) | IC50 (second compound 3.16 µM) | IC50 (second compound 10 µM)
inactive: viability, T/C [1] 102% | viability, T/C [2] 97.5% | viability, T/C [3] 99.1% | viability, T/C [4] 97.3% | viability, T/C [5] 108% | viability, T/C [6] 103% | viability, T/C [7] 98.8% | viability, T/C [8] 101% | viability, T/C [9] 102% | viability, T/C [10] 106% | viability, T/C [11] 107% | viability, T/C [12] 112% | viability, T/C [13] 96.1% | viability, T/C [14] 104% | viability, T/C [15] 101% | viability, T/C [16] 104% | viability, T/C [17] 106% | viability, T/C [18] 110% | viability, T/C [19] 95.8% | viability, T/C [20] 104% | viability, T/C [21] 107% | viability, T/C [22] 105% | viability, T/C [23] 101% | viability, T/C [24] 112% | viability, T/C [25] 103% | viability, T/C [26] 99.8% | viability, T/C [27] 103% | viability, T/C [28] 104% | viability, T/C [29] 106% | viability, T/C [30] 115% | viability, T/C [31] 104% | viability, T/C [32] 101% | viability, T/C [33] 100% | viability, T/C [34] 105% | viability, T/C [35] 99.6% | viability, T/C [36] 104%
